Where a SMILES comes first, the peptide text is derived from it. [ ]: non-standard residue; d: D form. The star is where a group is joined. Ac3c(1R,2S-2-vinyl) = C=C[C@@H]1C[C@]1(N)C(=O)O; Hyp = O=C(O)[C@@H]1C[C@@H](O)CN1; Chg = N[C@H](C(=O)O)C1CCCCC1; Carbamoyl = NC(=O)*
Tests used:
[1] = Inhibition of Hepatitis C virus full-length NS3/4A protease assessed as quenched-fluorogenic RET-S1 substrate cleavage incubated for 10 mins prior to substrate addition by FRET analysis; parameters: species or system Hepacivirus hominis
[2] = system: Hepatitis C virus; assay: Antiviral activity against Hepatitis C virus infected in human HuH7 cells assessed as inhibition of HCV subgenomic replicon replication after 72 hrs by ELISA; assay type: functional, organism-based, Hepacivirus hominis, Huh-7
[3] = Hepatitis C virus, Huh-7, 72 h, read-out: EC50

| Structure (SMILES) | IC50 [1] [nM] | EC50 [2, 3] [nM] | EC50 ([2]; huh-7) |
| --- | --- | --- | --- |
| CC(C)(C)OC(=O)N[C@H]1CCCCC/C=C\[C@@H]2C[C@@]2(C(=O)O)NC(=O)[C@@H]2C[C@@H](OC(=O)N3Cc4cc(Cl)c(Cl)cc4C3)CN2C1=O | 483 | 25000 |  |
| CN(C)c1ccc(S(=O)(=O)NC(=O)[C@@]23C[C@H]2/C=C\CCCCC[C@H](NC(=O)OC(C)(C)C)C(=O)N2C[C@H](OC(=O)N4Cc5ccccc5C4)C[C@H]2C(=O)N3)cc1 | 11 | 45 |  |
| N[C@H]1CCCCC/C=C\[C@@H]2C[C@@]2(C(=O)NS(=O)(=O)C2CC2)NC(=O)[C@@H]2C[C@@H](OC(=O)N3Cc4cccc(Cl)c4C3)CN2C1=O | 3 | 150 |  |
| CC(C)(C)OC(=O)N[C@H]1CCCCC/C=C\[C@@H]2C[C@@]2(C(=O)NS(=O)(=O)N2CCOCC2)NC(=O)[C@@H]2C[C@@H](OC(=O)N3Cc4ccccc4C3)CN2C1=O | 4.4 | 52 |  |
| CC(C)(C)OC(=O)N[C@H]1CCCCC/C=C\[C@@H]2C[C@@]2(C(=O)NS(=O)(=O)C2(Cc3ccccc3)CC2)NC(=O)[C@@H]2C[C@@H](OC(=O)N3Cc4ccccc4C3)CN2C1=O | 1.6 | 25 |  |
| CC(C)(C)OC(=O)N[C@H]1CCCCC/C=C\[C@@H]2C[C@@]2(C(=O)NS(=O)(=O)C2CC2)NC(=O)[C@@H]2C[C@@H](OC(=O)N3CCc4ccc(Cl)cc4C3)CN2C1=O | 4.1 | 65 |  |
| CC(C)(C)OC(=O)N[C@H]1CCCCC/C=C\[C@@H]2C[C@@]2(C(=O)NS(=O)(=O)c2cc(Cl)sc2Cl)NC(=O)[C@@H]2C[C@@H](OC(=O)N3Cc4ccccc4C3)CN2C1=O | 0.5 | 32 |  |
| CC(C)(C)OC(=O)N[C@H]1CCOCCCC[C@@H]2C[C@@]2(C(=O)NS(=O)(=O)C2CC2)NC(=O)[C@@H]2C[C@@H](OC(=O)N3Cc4cccc(F)c4C3)CN2C1=O | 0.7 | 19 |  |
| CC(C)(C)OC(=O)N[C@H]1CCCCC/C=C\[C@@H]2C[C@@]2(C(=O)O)NC(=O)[C@@H]2C[C@@H](O)CN2C1=O | > 50000 |  | Not Active |
| CC(C)(C)OC(=O)N[C@H]1CCN(CC(F)(F)F)CC/C=C\[C@@H]2C[C@@]2(C(=O)NS(=O)(=O)C2CC2)NC(=O)[C@@H]2C[C@@H](OC(=O)N3Cc4cccc(F)c4C3)CN2C1=O | 1.8 | 24 |  |
| CC(C)Nc1ccc2c(c1)CN(C(=O)O[C@@H]1C[C@H]3C(=O)N[C@]4(C(=O)NS(=O)(=O)C5CC5)C[C@H]4/C=C\CCCCC[C@H](NC(=O)OC(C)(C)C)C(=O)N3C1)C2 | 4.3 | 11 |  |
| CC(C)(C)OC(=O)N[C@H]1CCCCC/C=C\[C@@H]2C[C@@]2(C(=O)NS(=O)(=O)Nc2ccc(C(F)(F)F)cc2)NC(=O)[C@@H]2C[C@@H](OC(=O)N3Cc4ccccc4C3)CN2C1=O | 9.8 | 70 |  |
| CC(C)(C)OC(=O)N[C@H]1CCCCC/C=C\[C@@H]2C[C@@]2(C(=O)O)NC(=O)[C@@H]2C[C@@H](OC(=O)N3Cc4ccccc4C3)CN2C1=O | 11 | 1550 |  |
| CC(C)(C)OC(=O)N[C@H]1CCCCC/C=C\[C@@H]2C[C@@]2(C(=O)NS(=O)(=O)C2CC2)NC(=O)[C@@H]2C[C@@H](NC(=O)c3nc4cc(Cl)ccc4s3)CN2C1=O | 5.2 | 126 |  |
| CC(C)(C)OC(=O)N[C@H]1CCCCC/C=C\[C@@H]2C[C@@]2(C(=O)NS(=O)(=O)C2CC2)NC(=O)[C@@H]2C[C@@H](OC(=O)N3Cc4cccc(N5CCOCC5)c4C3)CN2C1=O | 1.8 | 77 |  |
| CC(C)(C)OC(=O)N[C@H]1CCC(F)(F)CC/C=C\[C@@H]2C[C@@]2(C(=O)NS(=O)(=O)C2CC2)NC(=O)[C@@H]2C[C@@H](OC(=O)N3Cc4cccc(F)c4C3)CN2C1=O | 1.5 | 7.2 |  |
| CC(C)(C)OC(=O)N[C@H]1CCCCC/C=C\[C@@H]2C[C@@]2(C(=O)O)NC(=O)[C@@H]2C[C@@H](OC(=O)N3Cc4ccc(C(F)(F)F)cc4C3)CN2C1=O | 195 | 7520 |  |
| C=C[C@@H]1C[C@]1(NC(=O)[C@@H]1C[C@@H](OC(N)=O)CN1C(=O)[C@@H](NC(=O)[C@@H](NC(C)=O)C1CCCCC1)C(C)C)C(=O)O (Ac-[Chg]V[Hyp](Carbamoyl)[Ac3c(1R,2S-2-vinyl)]-OH) | 200 | > 10000 |  |
| CC(C)(C)OC(=O)N[C@H]1CCCCC/C=C\[C@@H]2C[C@@]2(C(=O)O)NC(=O)[C@@H]2C[C@@H](OC(=O)N3Cc4ccc(F)cc4C3)CN2C1=O | 38 | 3220 |  |
| CC(C)(C)OC(=O)N[C@H]1CCCCC/C=C\[C@@H]2C[C@@]2(C(=O)NS(=O)(=O)C2CC2)NC(=O)[C@@H]2C[C@@H](NC(=O)c3sc4cccc(Cl)c4c3Cl)CN2C1=O | 1.4 | 9.5 |  |
| CC(C)(C)OC(=O)N[C@H]1CCC(F)(F)CCCC[C@@H]2C[C@@]2(C(=O)NS(=O)(=O)C2CC2)NC(=O)[C@@H]2C[C@@H](OC(=O)N3Cc4cccc(F)c4C3)CN2C1=O | 0.8 | 6.8 |  |
| CC(C)(C)OC(=O)N[C@H]1CCCCC/C=C\[C@@H]2C[C@@]2(C(=O)O)NC(=O)[C@@H]2C[C@@H](OC(=O)N3Cc4cccc(Cl)c4C3)CN2C1=O | 13 | 516 |  |
| CC(C)(C)OC(=O)N[C@H]1CCCC(F)(F)C/C=C\[C@@H]2C[C@@]2(C(=O)NS(=O)(=O)C2CC2)NC(=O)[C@@H]2C[C@@H](OC(=O)N3Cc4cccc(F)c4C3)CN2C1=O | 0.5 | 44 |  |
| CC(C)(C)OC(=O)N[C@H]1CCCCC/C=C\[C@@H]2C[C@@]2(C(=O)NS(=O)(=O)C2CC2)NC(=O)[C@@H]2C[C@@H](Nc3nc4ccccc4o3)CN2C1=O | 21 | 730 |  |
| CN(C)c1cccc2c1CCN(C(=O)O[C@@H]1C[C@H]3C(=O)N[C@]4(C(=O)NS(=O)(=O)C5CC5)C[C@H]4/C=C\CCCCC[C@H](NC(=O)OC(C)(C)C)C(=O)N3C1)C2 | 2.4 | 20 |  |
| CC(C)(C)OC(=O)N[C@H]1CCCCC/C=C\[C@@H]2C[C@@]2(C(=O)O)NC(=O)[C@@H]2C[C@@H](OC(=O)N3Cc4c(Cl)ccc(Cl)c4C3)CN2C1=O | 21 | 1480 |  |

Further lines, results first:

| IC50 [1] [nM] | EC50 [2, 3] [nM] | EC50 ([2]; huh-7) | Structure (SMILES) |
| --- | --- | --- | --- |
| 2.3 | 22 |  | COc1ccc2c(c1)CN(C(=O)O[C@@H]1C[C@H]3C(=O)N[C@]4(C(=O)NS(=O)(=O)C5CC5)C[C@H]4/C=C\CCCCC[C@H](NC(=O)OC(C)(C)C)C(=O)N3C1)C2 |
| 2.8 | 107 |  | O=C(N[C@H]1CCCCC/C=C\[C@@H]2C[C@@]2(C(=O)NS(=O)(=O)C2CC2)NC(=O)[C@@H]2C[C@@H](OC(=O)N3Cc4ccccc4C3)CN2C1=O)O[C@@H]1CCOC1 |
| 4.2 | 32 |  | CC(C)(C)OC(=O)N[C@H]1CCCCC/C=C\[C@@H]2C[C@@]2(C(=O)NS(=O)(=O)NC2CC2)NC(=O)[C@@H]2C[C@@H](OC(=O)N3Cc4ccccc4C3)CN2C1=O |
| 2 | 9.2 |  | CC(C)(C)OC(=O)N[C@H]1CCCCC/C=C\[C@@H]2C[C@@]2(C(=O)NS(=O)(=O)C2CC2)NC(=O)[C@@H]2C[C@@H](OC(=O)N3Cc4ccc(Cl)cc4C3)CN2C1=O |
| 1 | 6 |  | O=C(N[C@H]1CCCCC/C=C\[C@@H]2C[C@@]2(C(=O)NS(=O)(=O)C2CC2)NC(=O)[C@@H]2C[C@@H](OC(=O)N3CCc4ccccc4C3)CN2C1=O)OC1CCCC1 |
| 2.5 | 112 |  | CC(C)(C)OC(=O)N[C@H]1CCCCC/C=C\[C@@H]2C[C@@]2(C(=O)NS(=O)(=O)C2CC2)NC(=O)[C@@H]2C[C@@H](OC(=O)N3Cc4ccc(C#N)cc4C3)CN2C1=O |
| 4.8 | 21 |  | CC(C)S(=O)(=O)NC(=O)[C@@]12C[C@H]1/C=C\CCCCC[C@H](NC(=O)OC(C)(C)C)C(=O)N1C[C@H](OC(=O)N3Cc4ccccc4C3)C[C@H]1C(=O)N2 |
| 2.4 | 6.5 |  | CC(C)(C)OC(=O)N[C@H]1CCCCC/C=C\[C@@H]2C[C@@]2(C(=O)NS(=O)(=O)N2CCC2)NC(=O)[C@@H]2C[C@@H](OC(=O)N3Cc4ccccc4C3)CN2C1=O |
| 1.5 | 42 |  | CC(C)(C)OC(=O)N[C@H]1CCCCC/C=C\[C@@H]2C[C@@]2(C(=O)NS(=O)(=O)C2CC2)NC(=O)[C@@H]2C[C@@H](OC(=O)N3Cc4ccc(N)cc4C3)CN2C1=O |
| 0.8 | 7.7 |  | CC(C)(C)OC(=O)N[C@H]1CCCCC/C=C\[C@@H]2C[C@@]2(C(=O)NS(=O)(=O)C2CC2)NC(=O)[C@@H]2C[C@@H](OC(=O)N3Cc4ccccc4C(C)(C)C3)CN2C1=O |
| 2.4 | 38 |  | CC(C)(C)NC(=O)N[C@H]1CCCCC/C=C\[C@@H]2C[C@@]2(C(=O)NS(=O)(=O)C2CC2)NC(=O)[C@@H]2C[C@@H](OC(=O)N3Cc4ccccc4C3)CN2C1=O |
| 2.2 | 718 |  | CC(C)(C)OC(=O)N[C@H]1CCCCC/C=C\[C@@H]2C[C@@]2(C(=O)NS(=O)(=O)C2CC2)NC(=O)[C@@H]2C[C@@H](OC(=O)N3Cc4ccccc4C(O)C3)CN2C1=O (some centres undefined) |
| 7.7 | 13 |  | COCC1(S(=O)(=O)NC(=O)[C@@]23C[C@H]2/C=C\CCCCC[C@H](NC(=O)OC(C)(C)C)C(=O)N2C[C@H](OC(=O)N4Cc5ccccc5C4)C[C@H]2C(=O)N3)CC1 |
| 22 | 509 |  | CC(C)(C)OC(=O)N[C@H]1CCCCC/C=C\[C@@H]2C[C@@]2(C(=O)NS(=O)(=O)N2CCNCC2)NC(=O)[C@@H]2C[C@@H](OC(=O)N3Cc4ccccc4C3)CN2C1=O |
| 0.6 | 48 |  | O=C(CCC(F)(F)F)N[C@H]1CCCCC/C=C\[C@@H]2C[C@@]2(C(=O)NS(=O)(=O)C2CC2)NC(=O)[C@@H]2C[C@@H](OC(=O)N3Cc4ccccc4C3)CN2C1=O |
| 1.1 | 12 |  | CC(C)(C)OC(=O)N[C@H]1CCCCC/C=C\[C@@H]2C[C@@]2(C(=O)NS(=O)(=O)C2CC2)NC(=O)[C@@H]2C[C@@H](OC(=O)N3CCc4cccc(F)c4C3)CN2C1=O |
